One experiment has as its system Lung A-549. Kind of experiment: In vitro cytotoxicity (sulforhodamine B) against human cancer cell lines, Lung A-549. It counts as cell-based. The conditions noted are these: read-out: % GROWTH INHIBITION Lung A-549; for inhibition at 50 µM: A549, Conc 5 × 10^−5 M, 48 hours. Here is the method: (§1) The human cancer cell lines procured from National Cancer Institute, Frederick, U.S.A., were used in present study. Cells were grown in tissue culture flasks in complete growth medium (RPMI-1640 medium with 2 mM glutamine, 100 μg/mL streptomycin, pH 7.4, sterilized by filtration and supplemented with 10% fetal bovine serum and 100 units/ml penicillin before use) at 37° C. in an atmosphere of 5% CO2 and 90% relative humidity in a carbon dioxide incubator. The cells at subconfluent stage were harvested from the flask by treatment with trypsin (0.05% in PBS containing 0.02% EDTA) for determination of cytotoxicity. The cell suspension of the required cell density was prepared in complete growth medium with gentamycin (50 μg/mL) for determination of cytotoxicity.
(§2) Stock solutions of 2×10^−2M of test materials were prepared in DMSO. The stock solutions were serially diluted with complete growth medium containing 50 μg/ml of gentamycin to obtain working test solution of 2×10^−5M to obtain final concentration of 1×10^−5 M respectively.
(§3) In vitro cytotoxicity against human cancer cell lines was determined (Monks of al., J. Natl. Cancer Inst. 1991, 83, 757-766). The 100 μL of cell suspension was added to each well of the 96-well tissue culture plate. The cells were incubated for 24 hours (at 37° C. in an atmosphere of 5% CO2 and 90% relative humidity in a carbon dioxide incubator). Test materials in complete growth medium (100 μL) were added after 24 hours incubation to the wells containing cells. The plates were further incubated for 48 hours in a carbon dioxide incubator after addition of test material. The cell growth was stopped by gently layering trichloroacetic acid (50 μL, 50% w/v) on top of the medium in all the wells. The plates were incubated at 4° C. for one hour to fix the cells attached to the bottom of the wells. The liquid of all the wells was then gently decanted and discarded. The plates were washed five times with distilled water and air-dried. Cell growth was measured by staining with sulforhodamine B dye (Skehan et al., J. Natl. Cancer Inst. 1990, 82, 1107-1112). The adsorbed dye was dissolved in Tris-Buffer (100 μL, 0.01M, pH 10.4) and plates were gently stirred for 10 minutes on a mechanical stirrer. The optical density (OD) was recorded on ELISA reader at 540 nm.
(§4) The cell growth was calculated by subtracting mean OD value of respective blank from the mean OD value of experimental set. Percent growth in presence of test material was calculated considering the growth in absence of any test material as 100% and in turn percent growth inhibition in presence of test material was calculated. Suitable blank, controls and positive controls were included in the study.

The subject of the next experiment is Ovary IGR-OV-1. Kind of experiment: In vitro cytotoxicity (sulforhodamine B) against human cancer cell lines, Ovary IGR-OV-1. It counts as cell-based. The conditions noted are these: IGROV-1, Conc 5 × 10^−5 M, 48 hours, read-out: % GROWTH INHIBITION Ovary IGR-OV-1. Here is the method:
as §1, §2, §3, §4

The subject of another experiment is Prostrate DU-145. As to the kind of experiment: In vitro cytotoxicity (sulforhodamine B) against human cancer cell lines, Prostrate DU-145. Format: cell-based. The conditions noted are these: read-out: % GROWTH INHIBITION Prostrate DU-145; for inhibition at 50 µM: Conc 5 × 10^−5 M, 48 hours. The protocol: as §1, §2, §3, §4
A further experiment has as its system Prostrate PC-3. Kind of experiment: In vitro cytotoxicity (sulforhodamine B) against human cancer cell lines, Prostrate PC-3. The conditions noted are these: read-out: % GROWTH INHIBITION Prostrate PC-3; for inhibition at 50 µM: Conc 5 × 10^−5 M, 48 hours. It counts as cell-based. Here is the method:
as §1, §2, §3, §4

The subject of another experiment is Neuroblastoma IMR-32. As to the kind of experiment: In vitro cytotoxicity (sulforhodamine B) against human cancer cell lines, Neuroblastoma IMR-32. It counts as cell-based. The conditions noted are these: read-out: % GROWTH INHIBITION Neuroblastoma IMR-32; for inhibition at 50 µM: Conc 5 × 10^−5 M, 48 hours. Here is the method:
as §1, §2, §3, §4

A further experiment relates to Breast MCF-7. Kind of experiment: In vitro cytotoxicity (sulforhodamine B) against human cancer cell lines, Breast MCF-7. It counts as cell-based. The conditions noted are these: read-out: % GROWTH INHIBITION Breast MCF-7; for inhibition at 50 µM: MCF7, Conc 5 × 10^−5 M, 48 hours. The protocol:
as §1, §2, §3, §4

The test system of the next experiment is Colon Colo-205. Kind of experiment: In vitro cytotoxicity (sulforhodamine B) against human cancer cell lines, Colon Colo-205. Format: cell-based. The conditions noted are these: read-out: % GROWTH INHIBITION Colon Colo-205; for inhibition at 50 µM: Conc 5 × 10^−5 M, 48 hours. Here is the method: as §1, §2, §3, §4
Experiment [1] concerns Ehrlich ascites tumor (EAT) cells. The conditions noted are these: MTT assay, read-out: IC50 (drug concentration causing 50% growth inhibition of the tumor cells); cited from earlier work. On the technique in general: Tetrazolium assays rely on reduction of a dye to a coloured formazan, in cell work by metabolically active cells.
The next experiment concerns P388 leukemia. The conditions noted are these: NCI Report on NSC 369397, 25 Oct. 1983; cited from earlier work.
Experiment [2] has as its system cell line panels consisting of 60 lines. The conditions noted are these: nine disease-related subpanels; cited from earlier work.
The mark [3] stands for this setting: Conc 1 × 10^−5 M, positive control.

With `C=C(C#N)[C@H](O)C[C@H]1O[C@@H]2O[C@]3(C)CC[C@H]4[C@H](C)CC[C@@H]([C@H]1C)[C@@]24OO3` (single isomer, unassigned) [Compound 3b], the inhibition (as a rule, how much of the control response was suppressed) at 50 µM with Lung A-549 is 66%; with Ovary IGR-OV-1, 42%; in the experiment on Prostrate DU-145, 46%; with Prostrate PC-3, 65%; with Neuroblastoma IMR-32 it was 48%; in the experiment on Breast MCF-7, 46%. In the experiment on Colon Colo-205, the inhibition at 50 µM stood at 56%.

With `C=C(C#N)[C@@H](O)C[C@H]1O[C@@H]2O[C@]3(C)CC[C@H]4[C@H](C)CC[C@@H]([C@H]1C)[C@@]24OO3` (single isomer, unassigned) [Compound 3b′], the inhibition at 50 µM with Lung A-549 was found to be 77%; with Ovary IGR-OV-1 it was 56%; in the experiment with Prostrate DU-145, 60%; with Prostrate PC-3, 78%; in the experiment with Neuroblastoma IMR-32, 62%; with Breast MCF-7, 55%. In the experiment on Colon Colo-205, the inhibition at 50 µM stood at 75%.

In the case of `O=c1[nH]cc(F)c(=O)[nH]1` [5-Fluorouracil, reference compound], the inhibition at 20 µM in the experiment with Colon Colo-205 (Conc 2 × 10^−5 M, positive control) was found to be 54%.

Regarding `COc1cccc2c1C(=O)c1c(O)c3c(c(O)c1C2=O)C[C@@](O)(C(=O)CO)C[C@@H]3O[C@H]1C[C@H](N)[C@H](O)[C@H](C)O1` [Adriamycin, reference compound], the inhibition at 1 µM amounted to 70% in the experiment on Neuroblastoma IMR-32 (Conc 1 × 10^−6 M, positive control) and 72% in the experiment with Breast MCF-7 (MCF7, Conc 1 × 10^−6 M, positive control).

For `C[C@@H]1CC[C@H]2[C@@H](C)C(=O)O[C@@H]3O[C@@]4(C)CC[C@@H]1[C@]32OO4` [Artemisinin, artemisinin], the inhibition at 50 µM in the experiment on Lung A-549 amounted to 29%; with Ovary IGR-OV-1, 26%; in the experiment with Prostrate DU-145, 38%; in the experiment on Prostrate PC-3, 22%; in the experiment with Neuroblastoma IMR-32, 23%; with Breast MCF-7 it was 34%. For the same molecule, in the experiment with Colon Colo-205, the inhibition at 50 µM was 40%. The IC50 in [1] is 29.8 µM. For the same molecule, in the experiment with P388 leukemia, the “activity against P388 leukemia” value is “inactive”. The “anticancer activity on 60 cell line panels” value in experiment [2] is “very little anticancer activity”.

On to `C=C(C(=O)OC)[C@H](O)C[C@H]1O[C@@H]2O[C@]3(C)CC[C@H]4[C@H](C)CC[C@@H]([C@H]1C)[C@@]24OO3` [Compound 3a], for which the inhibition at 50 µM with Lung A-549 was 70%; with Ovary IGR-OV-1, 63%; in the experiment with Neuroblastoma IMR-32 it was 56%.

Regarding `C=C(C(C)=O)[C@H](O)C[C@H]1O[C@@H]2O[C@]3(C)CC[C@H]4[C@H](C)CC[C@@H]([C@H]1C)[C@@]24OO3` [Compound 3c], the inhibition at 50 µM was 85% in the experiment with Lung A-549; 33% in the experiment on Ovary IGR-OV-1; 73% with Prostrate DU-145; 81% in the experiment with Prostrate PC-3; 79% in the experiment with Neuroblastoma IMR-32; 66% with Breast MCF-7. The inhibition at 50 µM in the experiment on Colon Colo-205 is 100%.

`C[C@H]1[C@@H](C[C@@H](O)C2=CCCCC2=O)O[C@@H]2O[C@]3(C)CC[C@H]4[C@H](C)CC[C@@H]1[C@@]24OO3` [Compound 3d]: the inhibition at 50 µM turned out to be 66% in the experiment on Lung A-549; 60% with Ovary IGR-OV-1; 52% with Prostrate DU-145; 68% in the experiment with Prostrate PC-3; 72% with Neuroblastoma IMR-32; 43% with Breast MCF-7. For the same molecule, the inhibition at 50 µM in the experiment on Colon Colo-205 stood at 63%.

As to `CO[C@@]12[C@H](COC(N)=O)C3=C(C(=O)C(C)=C(N)C3=O)N1C[C@@H]1N[C@@H]12` [Mitomycin, reference compound], the figures for the inhibition at 10 µM in the experiment with Prostrate DU-145 (setting [3]) and with Prostrate PC-3 (setting [3]) were 92% and 54%, respectively.

Regarding `CC(=O)O[C@H]1C(=O)[C@@]2(C)[C@H]([C@H](OC(=O)c3ccccc3)[C@]3(O)C[C@H](OC(=O)[C@H](O)[C@@H](NC(=O)c4ccccc4)c4ccccc4)C(C)=C1C3(C)C)[C@]1(OC(C)=O)CO[C@@H]1C[C@@H]2O` [Paclitaxel, reference compound], in the experiment on Lung A-549 (A549, Conc 1 × 10^−5 M, positive control), the inhibition at 10 µM came to 69%.

(Values after patent US8841466B2, “Series of artemisinin derivatives and process for preparation thereof” (Council of Scientific & Industrial Research, priority 2010, dated 2014).)
